Data: patent US12485118B2, “Combinations of GLP-1R and THRβ agonists and methods of use thereof” (Terns Pharmaceuticals, Inc., priority 2023, dated 2025)
“Also recorded” adds a separate entry of the source. Read-outs that look alike come from different tables or passages of the source.

How the values were obtained:
male DIO mice [1] = test: 6 weeks of Compound 9 alone and in combination with semaglutide: body weight, food intake, body composition (EchoMRI) in male DIO mice at thermoneutrality; format: in vivo, mouse; settings: Compound 9 6 mg/kg PO combined with Semaglutide 30 nmol/kg SC
Experimental: (§1) Male C57BL/6JRj mice (5 weeks of age, n=70) were fed a high fat diet (n=60, 60% HFD, D12492, Ssniff) for 24 weeks, or a lean-chow diet (n=10, Altromin 1324) before treatment start. HFD animals were randomized during week -1 based on body weight, glucose levels and fat tissue mass into 5 treatments groups. Lean mice (group 1) were treated with vehicle (QD+QD, PO+SC) and DIO mice were treated (QD+QD, PO+SC) as follow: group 2 received vehicle (PO+SC), group 3 received Compound 9 6 mg/kg, PO+vehicle (SC), group 4 received Semaglutide (30 nmol/kg, SC)+vehicle (PO), group 5 received Compound 9 (6 mg/kg, PO)+Semaglutide (30 nmol/kg, SC) and group 6 received Tirzepatide (30 nmol/kg, SC)+vehicle (PO). Body weight, food and water intake were measured daily from day -3, body composition (EchoMRI) was measured during week -1 and week 6; energy expenditure was assessed at study day 5-7 and at study day 34-36. Fasting blood glucose and insulin levels were measured at baseline and termination, while an oral glucose tolerance test was performed at week 4. At termination, the M gastrocnemius muscle was weighted and collected for RNAseq analysis, while plasma, brain, liver, BAT, epidydimal and subcutaneous WAT depots were collected for sponsor.

male DIO mice [2] = test: Energy expenditure (heat production, RER, oxygen consumption) in male DIO mice at thermoneutrality; format: in vivo, mouse
Experimental: as §1

male DIO mice [3] = test: Glycemic control: oral glucose tolerance test and plasma insulin in male DIO mice at thermoneutrality; format: in vivo, mouse; settings: week 6
Experimental: On the day of the OGTT, random blood glucose and body weight of the mice are measured, mice are dosed with corresponding compounds or vehicle in the morning before fasting, then the mice are fasted for 6 hours, basal fasting glucose is measured by tail vein nick thereafter. Glucose is orally gavaged with 2 g/kg at a dose volume of 5 mL/kg. Blood glucose levels are measured at 0 (pre-dose), 15-, 30-, 60-, and 120-min post glucose dosing. The second dose is administrated after OGTT treatment.
Male C57BL/6JRj mice (5 weeks of age, n=70) were fed a high fat diet (n=60, 60% HFD, D12492, Ssniff) for 24 weeks, or a lean-chow diet (n=10, Altromin 1324) before treatment start. HFD animals were randomized during week -1 based on body weight, glucose levels and fat tissue mass into 5 treatments groups. […] Body weight, food and water intake were measured daily from day -3, body composition (EchoMRI) was measured during week -1 and week 6; energy expenditure was assessed at study day 5-7 and at study day 34-36. Fasting blood glucose and insulin levels were measured at baseline and termination, while an oral glucose tolerance test was performed at week 4. […]

[4] = system: uncoupling protein 1 (UCP-1) expression in subcutaneous adipose tissue; test: UCP-1 expression in subcutaneous adipose tissue of DIO mice; format: in vivo, mouse
Experimental: Body weight, food and water intake are measured daily. Body composition is measured using EchoMRI. Subcutaneous fat is collected and weighed at study termination.
as §1, with “At termination, the M gastrocnemius muscle was weighted and collected for RNAseq analysis, while plasma, brain, liver, BAT, epidydimal and subcutaneous WAT depots were collected for sponsor.” left out

DIO hGLP-1R mice = test: Compound 9 in combination with orforglipron in DIO hGLP-1R mice: body weight, food intake, body mass composition, subcutaneous fat, liver weight; format: in vivo, mouse; settings: Compound 9 3 mg/kg, orforglipron 0.2 and 2 mg/kg, combination 3 + 0.2 mg/kg; for body weight changes from baseline over time: PO QD 21 days; for terminal subcutaneous fat: study termination
Experimental: DIO hGLP-1R mice were housed at room temperature (21-25° C.) with a relative humidity of 40-70%. Temperature and relative humidity were monitored and recorded twice daily. An electronic time-controlled lighting system was used to provide a 12 h light/12 h dark cycle, 19:00 pm-7:00 am, lights out and enrichment toys were provided. The mice were fed high fat diet (HFD, Research Diets 12492, 60% kca, 1% fat) for >50 weeks to induce obesity. Mice were acclimated to once-daily (QD) oral dosing (per os, PO) for 1 week with body weight and food intake measured on consecutive 4 days prior to dosing start (Day 1). Body mass composition was measured by EchoMRI (Bruker Minispec LF90II) on Day 0 and mice were randomized to treatment groups (Table 5-1) based on baseline body weight, food intake, and body composition.
Body mass composition was assessed on Day 19. […] Subcutaneous fat was collected and weighed at study termination.

[5] = Plasma pharmacokinetics of Compound 9 and orforglipron in DIO hGLP-1R mice; settings: for AUC(0-t) / Cmax: hGLP-1R transgenic (expressing human GLP-1R)
Experimental: Test compounds were formulated in vehicle (10% [v/v]Solutol HS15+90% [v/v]saline) and mice were treated QD PO for 21 days with vehicle, Compound 9 (3 mg/kg), orforglipron (0.2 and 2 mg/kg), and Compound 9 (3 mg/kg) in combination with orforglipron (0.2 mg/kg). Body weight and food intake were measured daily, and mice were maintained on HFD throughout the study period. On Day 20 of the study, plasma samples were collected at predose (O), 2-, 4-, 8-, and 24-hours postdose for pharmacokinetic analyses of Compound 9, orforglipron, and combination treatment groups. Body mass composition was assessed on Day 19. Liver was collected and weighed at study termination and portions were preserved for steatosis assessment by histology. Subcutaneous fat was collected and weighed at study termination. A sample of subcutaneous fat tissue was assessed for UCP-1 expression by qPCR and Western blot analyses.

humans = settings: cited from earlier work
rodent GLP-1R = biological target: T1, rodent GLP-1R (Mus musculus, UniProt O35659); settings: cited from earlier work
T1 sequence (O35659 22-463): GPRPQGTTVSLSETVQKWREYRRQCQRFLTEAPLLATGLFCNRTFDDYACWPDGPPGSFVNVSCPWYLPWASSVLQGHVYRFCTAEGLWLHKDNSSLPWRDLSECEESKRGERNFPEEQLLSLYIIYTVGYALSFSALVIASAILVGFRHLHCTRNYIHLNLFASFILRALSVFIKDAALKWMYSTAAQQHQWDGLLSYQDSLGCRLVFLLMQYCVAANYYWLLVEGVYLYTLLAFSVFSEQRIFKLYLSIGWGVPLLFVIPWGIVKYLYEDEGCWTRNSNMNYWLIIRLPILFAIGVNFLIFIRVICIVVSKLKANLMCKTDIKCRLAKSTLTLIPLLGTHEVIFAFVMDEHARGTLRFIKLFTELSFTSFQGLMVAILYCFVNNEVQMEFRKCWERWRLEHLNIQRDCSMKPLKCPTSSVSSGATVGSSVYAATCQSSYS

SMILES: N#Cc1nn(-c2cc(Cl)c(Oc3n[nH]c(=O)c4ccccc34)c(Cl)c2)c(=O)[nH]c1=O [Compound 9, 2-(3,5-dichloro-4-((4-oxo-3,4-dihydrophthalazin−1-yl)oxy)phenyl)-3,5-dioxo-2,3,4,5-tetrahydro-1,2,4-triazine-6-carbonitrile]
- average food intake (male DIO mice [1]): normalized semaglutide-induced reduction in food intake
- heat production (male DIO mice [2]; after 5 weeks of treatment): increased both dark and light-phase heat production
- energy expenditure (EE) (male DIO mice [2]; assessed after week 4): restored energy expenditure to normal (DIO Veh) levels when combined with semaglutide
- plasma insulin level (male DIO mice [3]): increased
- uncoupling protein 1 (UCP-1) expression [4]: partially restored the obesity induced lowering of UCP-1
- fat mass change from baseline (DIO hGLP-1R mice; Day 19, PO QD): remained relatively unchanged
- lean mass change from baseline (DIO hGLP-1R mice; Day 19, PO QD): negligible
- body weight changes from baseline over time (DIO hGLP-1R mice): remained relatively unchanged; also recorded: comparable to a 10-fold higher dose of orforglipron as monotherapy
- terminal subcutaneous fat (DIO hGLP-1R mice; PO QD): not significantly different from mice treated with vehicle
- AUC(0-t) ([5]; mouse, in vivo, po, 3 mg/kg): 19 µg·h/mL
- Cmax ([5]; mouse, in vivo, po, 3 mg/kg): 2.48 µg/mL
- exposure (dose proportionality, effect of combination) ([5]; mouse, in vivo, po): unaffected when dosed in combination with orforglipron

SMILES: Cc1cc(-n2nc3c(c2-n2ccn(-c4ccc5c(cnn5C)c4F)c2=O)[C@H](C)N(C(=O)c2cc4cc([C@H]5CCOC(C)(C)C5)ccc4n2[C@@]2(c4noc(=O)[nH]4)C[C@@H]2C)CC3)cc(C)c1F [orforglipron]
- fat mass change from baseline (DIO hGLP-1R mice; Day 19, PO QD): dose-dependent decrease in fat mass
- body weight changes from baseline over time (DIO hGLP-1R mice): dose-dependent body weight decreases over time
- daily food intake (DIO hGLP-1R mice; PO QD): profoundly reduced in a dose-dependent manner during the first few days
- terminal subcutaneous fat (DIO hGLP-1R mice; PO QD): dose-dependent decrease in subcutaneous fat, although only the high dose was significantly different from vehicle treatment
- unbound exposure AUC24h,u ([5]; 0.2 mg/kg daily in mice, equivalent to 6 mg/day in humans): ~0.0003 µg·h/mL
- unbound exposure AUC24h,u ([5]; 2 mg/kg daily in mice, equivalent to 45 mg/day in humans): ~0.0016 µg·h/mL
- AUC(0-t) ([5]; mouse, in vivo, po, 0.2 mg/kg): 0.543 µg·h/mL
- Cmax ([5]; mouse, in vivo, po, 0.2 mg/kg): 0.0474 µg/mL
- AUC(0-t) ([5]; mouse, in vivo, po, 2 mg/kg): 2.67 µg·h/mL
- Cmax ([5]; mouse, in vivo, po, 2 mg/kg): 0.251 µg/mL
- exposure (dose proportionality, effect of combination) ([5]; mouse, in vivo, po): increased in a less than dose-proportional manner
- exposure (dose proportionality, effect of combination) ([5]; plasma, Day 20, PO QD): largely unaffected when dosed in combination with Compound 9
- occurrence of total adverse events compared to placebo, OR (humans; 12 mg daily dose): 2.49 (95% CI: 1.25, 4.98)
- occurrence of total adverse events compared to placebo, OR (humans; 24 mg daily dose): 2.23 (95% CI: 1.13, 4.43)
- occurrence of total adverse events compared to placebo, OR (humans; 36 mg daily dose): 2.04 (95% CI: 1,08,3.84)
- change in body weight at week 26 (humans; 45 mg daily compared to 12, 24 or 36 mg/day): highest change in body weight
- occurrence of total adverse events compared to placebo, OR (humans; 45 mg daily dose): 2.96 (95% CI: 1.41, 6.21)
- total adverse events compared to placebo (humans; all doses (12, 24, 36, 45 mg daily)): significantly higher
- activity on rodent GLP-1R (rodent GLP-1R): inactive
